The record followed here is PubChem BioAssay (NCI).

Each structure is given as a SMILES string.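 Compound exposure: 48 hours, 5 concentrations, 96-well plates. GI50 = concentration required for 50% inhibition of growth. TGI: concentration producing complete growth inhibition.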

Some test systems named below: COLO 205 colon; NCI-H226 lung; OVCAR-4 ovarian; SW-620 colon; TK-10 renal; RPMI-8226 leukemia; NCI-H460 lung; T-47D breast; SK-MEL-28 melanoma; A549 NSCLC.
Holding throughout (assay): NCI anticancer screen, dose series, 48 h

For `CN(C)c1ccc2cc(-c3ccccc3F)c(N)nc2c1`, the GI50 in the assay with COLO 205 colon was 1.38 µM; in the assay on NCI-H226 lung, 3.61 µM; with OVCAR-4 ovarian it was 3.83 µM; with SW-620 colon, 0.636 µM; with TK-10 renal, 3.83 µM; in the assay on RPMI-8226 leukemia it was 2.83 µM. Further, the GI50 in the assay on NCI-H460 lung is 2.02 µM; with T-47D breast, 1.26 µM; in the assay with SK-MEL-28 melanoma it was 2.57 µM; in the assay with A549 NSCLC, 2.46 µM. In addition, the TGI in the assay on COLO 205 colon stood at 6.35 µM; with NCI-H226 lung, 20.3 µM; with OVCAR-4 ovarian, 36 µM; in the assay with SW-620 colon it was 17.2 µM; in the assay with TK-10 renal, 16.2 µM; in the assay on RPMI-8226 leukemia, 17.7 µM. Further, the TGI in the assay with NCI-H460 lung stood at 13.2 µM; with T-47D breast, 13.6 µM; in the assay with SK-MEL-28 melanoma it was 19.6 µM; in the assay on A549 NSCLC, 16.4 µM.
